Structures can show the parent of a compound that is named as a salt. Where two headings read alike, the source gives them in different places.
Legend:
[1] = system: HEK293 FOP control reporter cell line; assay: HEK293 FOP control reporter assay; format: cell-based, human; details: read-out: HEK FOP IC50
Procedure: (§1) Measurement of luciferase expression was done as described for the constitutive active Wnt assay.
(§2) In a parallel approach, HEK293 cells were cotransfected with the FOP control vector and pcDNA3. The FOP vector is identical to the TOP construct, but it contains instead of functional TCF elements a randomized, non-functional sequence. For this transfection a stable transfected cell line was generated as well, based on selection with Geneticin (1 mg/ml).

[2] = system: constitutive active colorectal cancer cell (CRC) Wnt pathway; assay: HCT116 TOPFlash cellular reporter assay (Super TopFlash luciferase), constitutive active Wnt pathway; format: cell-based; details: HCT116 TOP reporter cells, 36 hours incubation, luciferase expression
Procedure: In order to discover and characterize small molecules which inhibit the constitutive active colorectal cancer cell (CRC) Wnt pathway, a cellular reporter assay was employed. […] Stable transfectants were generated by cotransfection with pcDNA3 and selection of stable transfected cells with 1 mg/ml G418.

[3] = system: wildtype Wnt pathway; assay: HEK293 TOP reporter assay, wildtype Wnt pathway stimulated with Wnt-3a; format: cell-based, human
Procedure: as §1
In order to discover and characterize small molecules which inhibit the wildtype Wnt pathway, a cellular reporter assay was employed. […] Stable transfectants were generated by selection with 300 μg/ml Hygromycin.

[4] = system: HCT116 FOP control reporter cell line; assay: HCT116 FOPFlash control reporter assay (FOP control vector, non-functional TCF elements); format: cell-based; details: HCT116 FOP control reporter cells, 36 hours incubation, luciferase expression
Text: as §2, with “HCT116” for “HEK293”, “well.” for “well, based on selection with Geneticin (1 mg/ml).”

[5] = HEK293 FOP control cells, EC50 concentration of recombinant Wnt-3a, 16 hours
[6] = Homo sapiens, HEK293, 16 h; read-out: HEK TOP OncoFlash IC50
[7] = Homo sapiens, HEK293, 16 h, read-out: HEK TOP OncoFlash IC50

Molecule | IC50 [1, 5] [nM] | IC50 [2] [nM] | IC50 ([3]; HEK293 TOP cells, EC50 concentration of recombinant Wnt-3a, 16 hours; read-out: HEK TOP OncoFlash IC50) [nM] | IC50 [4] [nM] | IC50 ([1]; Homo sapiens, HEK293, 16 h) [nM] | IC50 ([2]; Homo sapiens, HCT-116, 36 h) [nM] | IC50 [3, 6] [nM] | IC50 ([4]; Homo sapiens, HCT-116, 36 h) [nM] | IC50 [3, 7] [nM]
C[C@H](C(=O)Nc1cc(C(=O)Nc2ccc(-c3ccc(N(C)C)cc3)nc2)ccc1OC(F)(F)F)N1CCOCC1 (single isomer, unassigned) [Example 115, N-{6-[4-(dimethylamino)phenyl]pyridin-3-yl}-3-{[(2S)-2-(morpholin-4-yl)propanoyl]amino}-4-(trifluoromethoxy)benzamide or N-{6-[4-(dimethylamino)phenyl]pyridin-3-yl}-3-{[(2R)-2-(morpholin-4-yl)propanoyl]amino}-4-(trifluoromethoxy)benzamide] | 4700 | 8.8 | 52 | 2200 | – | – | – | – | –
COc1ccc(C(=O)Nc2ccc(-c3ccccc3F)nc2)cc1NC(=O)CN1CCOCC1 [Example 1, N-[6-(2-fluorophenyl)pyridin-3-yl]-4-methoxy-3-[(morpholin-4-ylacetyl)amino]benzamide] | – | – | – | – | ≥ 50000 | 1140 | 3300 | ≥ 50000 | –
O=C(CN1CCOCC1)Nc1cc(C(=O)Nc2ccc(-c3ccccc3)nc2)ccc1OC(F)(F)F [Example 15, 3-[(morpholin-4-ylacetyl)amino]-N-(6-phenylpyridin-3-yl)-4-(trifluoromethoxy)benzamide] | – | – | – | – | ≥ 50000 | 137 | 48 | ≥ 50000 | –
O=C(CN1CCOCC1)Nc1cc(NC(=O)c2ncc(-c3ccccc3)s2)ccc1OC(F)(F)F [Example 16, N-{3-[(morpholin-4-ylacetyl)amino]-4-(trifluoromethoxy)phenyl}-5-phenyl-1,3-thiazole-2-carboxamide] | – | – | – | – | ≥ 50000 | 17.8 | 92 | ≥ 50000 | –
O=C(CN1CCOCC1)Nc1cc(NC(=O)c2ccc(-c3ccccc3)s2)ccc1OC(F)(F)F [Example 17, N-{3-[(morpholin-4-ylacetyl)amino]-4-(trifluoromethoxy)phenyl}-5-phenylthiophene-2-carboxamide] | – | – | – | – | ≥ 50000 | 43 | 33 | ≥ 50000 | –
CC(C)(C)c1ccc(NC(=O)c2ccc(-c3ccccc3)s2)cc1NC(=O)CN1CCOCC1 [Example 19, N-{4-tert-butyl-3-[(morpholin-4-ylacetyl)amino]phenyl}-5-phenylthiophene-2-carboxamide] | – | – | – | – | ≥ 50000 | 26.2 | 990 | 11000 | –
COc1ccc(NC(=O)c2ccc(-c3ccccc3)s2)cc1NC(=O)CN1CCOCC1 [Example 25, N-{4-methoxy-3-[(morpholin-4-ylacetyl)amino]phenyl}-5-phenylthiophene-2-carboxamide] | – | – | – | – | 10000 | 326 | 90 | ≥ 50000 | –
O=C(CN1CCOCC1)Nc1cc(NC(=O)c2ccc(-c3ccccc3F)nc2)ccc1OC(F)(F)F [Example 30, 6-(2-fluorophenyl)-N-{3-[(morpholin-4-ylacetyl)amino]-4-(trifluoromethoxy)phenyl}nicotinamide] | – | – | – | – | ≥ 50000 | 90.1 | 1400 | ≥ 50000 | –
O=C(CN1CCOCC1)Nc1cc(NC(=O)c2ccc(-c3ccccc3)nc2)ccc1OC(F)(F)F [Example 33, N-{3-[(morpholin-4-ylacetyl)amino]-4-(trifluoromethoxy)phenyl}-6-phenylnicotinamide] | – | – | – | – | 7400 | 111 | 370 | ≥ 50000 | –
CN1CCN(CC(=O)Nc2cc(C(=O)Nc3nnc(-c4ccccc4)s3)ccc2OC(F)F)CC1 [Example 40, 4-(difluoromethoxy)-3-{[(4-methylpiperazin-1-yl)acetyl]amino}-N-(5-phenyl-1,3,4-thiadiazol-2-yl)benzamide] | – | – | – | – | ≥ 50000 | 52.4 | 530 | ≥ 50000 | –
CC(C(=O)Nc1cc(C(=O)Nc2nnc(-c3ccccc3)s2)ccc1OC(F)F)N1CCN(C)CC1 (stereo not drawn) [Example 42, 4-(difluoromethoxy)-3-{[2-(4-methylpiperazin-1-yl)propanoyl]amino}-N-(5-phenyl-1,3,4-thiadiazol-2-yl)benzamide trifluoroacetate (1:1)] | – | – | – | – | ≥ 50000 | 242 | – | ≥ 50000 | 106
COCc1ccc(C(=O)Nc2nnc(-c3ccccc3)s2)cc1NC(=O)C1(N2CCOCC2)CC1 [Example 43, 4-(methoxymethyl)-3-({[1-(morpholin-4-yl)cyclopropyl]carbonyl}amino)-N-(5-phenyl-1,3,4-thiadiazol-2-yl)benzamide] | – | – | – | – | ≥ 50000 | 49.1 | 110 | ≥ 50000 | –
COCc1ccc(C(=O)Nc2nnc(-c3ccccc3)s2)cc1NC(=O)C1(N2CCN(C)CC2)CC1 [Example 45, 4-(methoxymethyl)-3-({[1-(4-methylpiperazin-1-yl)cyclopropyl]carbonyl}amino)-N-(5-phenyl-1,3,4-thiadiazol-2-yl)benzamide hydrochloride (1:1)] | – | – | – | – | ≥ 50000 | 198 | – | 26500 | 190
COCc1ccc(C(=O)Nc2nnc(-c3ccccc3)s2)cc1NC(=O)CN1CCN(C)CC1 [Example 46, 4-(methoxymethyl)-3-{[(4-methylpiperazin-1-yl)acetyl]amino}-N-(5-phenyl-1,3,4-thiadiazol-2-yl)benzamide] | – | – | – | – | ≥ 50000 | 164 | 690 | ≥ 50000 | –
CS(=O)(=O)Cc1ccc(C(=O)Nc2nnc(-c3ccccc3)s2)cc1NC(=O)C1(N2CCOCC2)CC1 [Example 47, 4-[(methylsulfonyl)methyl]-3-({[1-(morpholin-4-yl)cyclopropyl]carbonyl}amino)-N-(5-phenyl-1,3,4-thiadiazol-2-yl)benzamide] | – | – | – | – | ≥ 50000 | 39.8 | 90 | ≥ 50000 | –
CS(=O)(=O)Cc1ccc(C(=O)Nc2nnc(-c3ccccc3)s2)cc1NC(=O)C1(N2CCN(C3CC3)CC2)CC1 [Example 48, 3-({[1-(4-cyclopropylpiperazin-1-yl)cyclopropyl]carbonyl}amino)-4-[(methylsulfonyl)methyl]-N-(5-phenyl-1,3,4-thiadiazol-2-yl)benzamide] | – | – | – | – | ≥ 50000 | 73.7 | 130 | ≥ 50000 | –
CN1CCN(CC(=O)Nc2cc(C(=O)Nc3nnc(-c4ccccc4)s3)ccc2OC(F)(F)F)CC1 [Example 54, 3-{[(4-methylpiperazin-1-yl)acetyl]amino}-N-(5-phenyl-1,3,4-thiadiazol-2-yl)-4-(trifluoromethoxy)benzamide] | – | – | – | – | ≥ 50000 | 104 | 130 | 28000 | –
NC(=O)c1ccc(C(=O)Nc2nnc(-c3ccccc3)s2)cc1NC(=O)C1(N2CCOCC2)CC1 [Example 56, 2-({[1-(morpholin-4-yl)cyclopropyl]carbonyl}amino)-N-4-(5-phenyl-1,3,4-thiadiazol-2-yl)terephthalamide] | – | – | – | – | ≥ 50000 | 104 | 190 | ≥ 50000 | –
COc1ccc(NC(=O)c2ccc(-c3ccccc3F)nc2)cc1NC(=O)C1(N2CCOCC2)CC1 [Example 62, 6-(2-fluorophenyl)-N-[4-methoxy-3-({[1-(morpholin-4-yl)cyclopropyl]carbonyl}amino)phenyl]nicotinamide] | – | – | – | – | ≥ 50000 | 67.3 | 180 | ≥ 50000 | –
COc1ccc(C(=O)Nc2ccc(-c3ccccc3F)nc2)cc1NC(=O)C1(N2CCOCC2)CC1 [Example 80, N-[6-(2-fluorophenyl)pyridin-3-yl]-4-methoxy-3-({[1-(morpholin-4-yl)cyclopropyl]carbonyl}amino)benzamide] | – | – | – | – | 10000 | 27 | 150 | ≥ 50000 | –
COc1ccc(C(=O)Nc2ccc(-c3ccccc3)nc2)cc1NC(=O)C1(N2CCOCC2)CC1 [Example 81, 4-methoxy-3-({[1-(morpholin-4-yl)cyclopropyl]carbonyl}amino)-N-(6-phenylpyridin-3-yl)benzamide] | – | – | – | – | ≥ 50000 | 23.1 | 15 | ≥ 50000 | –
N-[6-(2-fluorophenyl)pyridin-3-yl]-3-{[(2S)-2-(4-methylpiperazin-1-yl)propanoyl]amino}-4-(trifluoromethoxy)benzamide or N-[6-(2-fluorophenyl)pyridin-3-yl]-3-{[(2R)-2-(4-methylpiperazin-1-yl)propanoyl]amino}-4-(trifluoromethoxy)benzamide [Example 66] | ≥ 50000 | 11 | – | ≥ 50000 | – | – | – | – | –

Reference: patent US10130633B2, “Compounds” (BAYER PHARMA AKTIENGESELLSCHAFT, priority 2013, dated 2018)
